Assay [1] addresses T1, NTMT2 (Homo sapiens, UniProt Q5VVY1).
T1 construct: DNA encoding human NTMT2 (residues 58–278) was amplified by PCR; SUMO (His8-SUMO of the pET28-MKH8SUMO vector, with TEV site) (N, cleaved yes); made in house; host or cells: Escherichia coli BL21 (DE3)
Description: Isothermal titration calorimetry, wild-type NTMT2 and peptide. The class given is binding. On the procedure:
ITC measurements were performed in 20 mM Tris–HCl pH 7.5, 150 mM NaCl and 0.5 mM TCEP at 25 °C using MicroCal VP-ITC instrument. The final concentrations of protein and peptide were 50–80 μM and 0.6–1.2 mM, respectively. The peptide was titrated into the protein solution with 26 injections of 10 μL each. Injections were spaced 180 s with a reference power of 15 μcal s^−1. The ITC data were processed using Origin software.
(ITC needs no label: the signal is the heat of the interaction.)

Assay [2] addresses T1, NTMT2. The assay is described as follows: MALDI-MS methyltransferase activity assay, NTMT2. The settings on record: 2 μM NTMT2, 10 μM peptide, 200 μM SAM, 25 mM Tris–HCl pH 7.5, 50 mM KCl, 37 °C, overnight. The class given is biochemical. On the procedure:
(§1) A mixture (36 μL) of 2 μM enzyme (NTMT1 or NTMT2), 25 mM Tris–HCl pH 7.5, 50 mM KCl and 200 μM SAM was incubated at 37 °C for 5 min. 4 μL of 100 μM peptide substrate (final concentration 10 μM) was then added to initiate the reaction. The reaction was incubated overnight and then stopped with quenching solution (20 mM NH4H2PO4, 0.4% (v/v) TFA in 1:1 acetonitrile/water). Reaction mixtures were analyzed with an Applied Biosystems Voyager matrix-assisted laser desorption/ionization time-of-flight mass spectrometer. Processing of all spectra results in Data Explorer included application of a noise filter (correlation factor of 1.0) and a baseline correction. Areas of the monoisotopic peaks for all relevant species were combined to obtain a total area for each sample. The fraction of each methylation state was calculated by summing the areas of all the monoisotopic peaks for that state ([M + H]^+, [M + Na]^+, [M + K]^+, [M – H + 2Na]^+, [M – H + 2 K]^+, and [M – H + Na + K]^+) and then dividing by the total area.

For assay [3], the system named is NTMT1. The assay is described as follows: MALDI-MS methyltransferase activity assay, NTMT1. It is filed as biochemical, human. To be noted: 2 μM NTMT1, 10 μM peptide, 200 μM SAM, 25 mM Tris–HCl pH 7.5, 50 mM KCl, 37 °C, overnight. The method, then:
as §1

Assay [4] relates to NTMT2-N89G mutant. The assay is described as follows: MALDI-MS methyltransferase activity assay, NTMT2-N89G mutant. The class given is biochemical, human. The settings on record: NTMT2-N89G under the same conditions (2 μM enzyme, 10 μM peptide, 200 μM SAM, pH 7.5, 37 °C, overnight). The method, then:
as §1

Setting [5] is: ITC, wild-type NTMT2, 20 mM Tris–HCl pH 7.5, 150 mM NaCl, 0.5 mM TCEP, 25 °C, ND = no detectable binding.

“Also recorded” adds a separate entry of the source. Read-outs that look alike come from different tables or passages of the source. Square brackets hold non-standard residues; d marks the D form. Ends that are not written are not given here. Peptide text beside a SMILES is read from it. NMeS = CN[C@@H](CO)C(=O)O; NMeA = CN[C@@H](C)C(=O)O

T1 sequence (Q5VVY1 58-278): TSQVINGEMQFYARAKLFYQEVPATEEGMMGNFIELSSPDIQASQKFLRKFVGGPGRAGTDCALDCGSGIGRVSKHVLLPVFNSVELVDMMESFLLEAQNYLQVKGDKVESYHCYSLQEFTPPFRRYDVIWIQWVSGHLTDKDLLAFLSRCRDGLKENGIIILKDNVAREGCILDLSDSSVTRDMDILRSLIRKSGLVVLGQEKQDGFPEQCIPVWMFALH

What is called Kd is the concentration at which binding is half-saturated. For the compound `CC[C@H](C)[C@H](NC(=O)[C@H](CCCNC(=N)N)NC(=O)[C@H](CCCCN)NC(=O)[C@@H]1CCCN1C(=O)[C@H](C)NC)C(=O)N[C@@H](C)C(=O)O` [Ame1PKRIA] (H-[NMeA]PKRIA-OH), in assay [1] (setting [5]), the Kd result is given as “no detectable binding; also recorded: does not bind”.

On to `CC[C@H](C)[C@H](NC(=O)[C@H](CCCNC(=N)N)NC(=O)[C@H](CCCCN)NC(=O)[C@@H]1CCCN1C(=O)[C@H](CO)NC)C(=O)N[C@@H](C)C(=O)O` [Sme1PKRIA] (H-[NMeS]PKRIA-OH), for which the Kd result in assay [1] (setting [5]) is listed as “barely demonstrated any binding affinity; also recorded: does not bind”.

Take “MPKRIA [synthetic XPKRIA hexapeptide substrate, X = M]”: in assay [2], the Di-methylated fraction amounted to 0.00%, the Mono-methylated fraction stood at 41.45%, the Trimethylated fraction turned out to be 0.00% and the Unmethylated fraction was found to be 58.55%. In assay [3], this compound gave a Di-methylated fraction of 91.26%, a Mono-methylated fraction of 0.00%, a Trimethylated fraction of 8.74% and an Unmethylated fraction of 0.00%. In assay [4], the Di-methylated fraction worked out at 0.00%, the Mono-methylated fraction is 100.00%, the Trimethylated fraction is reported as 0.00% and the Unmethylated fraction is recorded as 0.00%.

As for “NPKRIA [synthetic XPKRIA hexapeptide substrate, X = N]”, in assay [2], the Di-methylated fraction was found to be 0.00%, the Mono-methylated fraction was 0.00%, the Trimethylated fraction is given as 0.00% and the Unmethylated fraction amounted to 100.00%. In assay [3], the Di-methylated fraction was 100.00%, the Mono-methylated fraction is given as 0.00%, the Trimethylated fraction is 0.00% and the Unmethylated fraction turned out to be 0.00%. In assay [4], this compound yielded a Di-methylated fraction of 0.00%, a Mono-methylated fraction of 21.58% and a Trimethylated fraction of 0.00%.

In assay [2], “PPKRIA [synthetic XPKRIA hexapeptide substrate, X = P]” had a Di-methylated fraction of 10.19%, a Mono-methylated fraction of 38.00%, a Trimethylated fraction of 0.00% and an Unmethylated fraction of 51.81%. In assay [3], this compound yielded a Di-methylated fraction of 100.00%, a Mono-methylated fraction of 0.00%, a Trimethylated fraction of 0.00% and an Unmethylated fraction of 0.00%. For the same compound, in assay [4], the Di-methylated fraction came to 4.45%, the Mono-methylated fraction is 65.75% and the Trimethylated fraction is recorded as 0.00%.

In assay [2], “QPKRIA [synthetic XPKRIA hexapeptide substrate, X = Q]” yielded a Di-methylated fraction of 0.00%, a Mono-methylated fraction of 0.00%, a Trimethylated fraction of 0.00% and an Unmethylated fraction of 100.00%. In assay [3], the Di-methylated fraction was 100.00%, the Mono-methylated fraction turned out to be 0.00%, the Trimethylated fraction was found to be 0.00% and the Unmethylated fraction amounted to 0.00%. Moreover, in assay [4], the Di-methylated fraction is 0.00%, the Mono-methylated fraction is 32.39%, the Trimethylated fraction came to 0.00% and the Unmethylated fraction was found to be 67.61%.

In assay [2], “RPKRIA [synthetic XPKRIA hexapeptide substrate, X = R]” returned a Di-methylated fraction of 0.00%, a Mono-methylated fraction of 23.35%, a Trimethylated fraction of 0.00% and an Unmethylated fraction of 76.65%. In assay [3], this compound returned a Di-methylated fraction of 98.24%, a Mono-methylated fraction of 0.00%, a Trimethylated fraction of 1.76% and an Unmethylated fraction of 0.00%. Besides, in assay [4], the Di-methylated fraction was 0.00%, the Mono-methylated fraction worked out at 47.86%, the Trimethylated fraction is reported as 0.00% and the Unmethylated fraction worked out at 52.14%.

In assay [2], SPKRIA [SPKRIA] came in with a Di-methylated fraction of 0.00%, a Mono-methylated fraction of 46.39%, a Trimethylated fraction of 0.00% and an Unmethylated fraction of 53.61%. Moreover, the Kd in assay [1] (read-out: Kd) is 18 µM.

As for “TPKRIA [synthetic XPKRIA hexapeptide substrate, X = T]”, in assay [2], the Di-methylated fraction worked out at 0.00%, the Mono-methylated fraction is reported as 0.00%, the Trimethylated fraction was 0.00% and the Unmethylated fraction is 100.00%. Further, in assay [3], the Di-methylated fraction turned out to be 33.51%, the Mono-methylated fraction was found to be 40.04%, the Trimethylated fraction was determined as 0.00% and the Unmethylated fraction was found to be 26.44%. Also, in assay [4], the Di-methylated fraction is given as 0.00%, the Mono-methylated fraction is 11.78%, the Trimethylated fraction was 0.00% and the Unmethylated fraction amounted to 88.22%.

In assay [2], “VPKRIA [synthetic XPKRIA hexapeptide substrate, X = V]” yielded a Di-methylated fraction of 0.00%, a Mono-methylated fraction of 0.00%, a Trimethylated fraction of 0.00% and an Unmethylated fraction of 100.00%. In assay [3], this compound registered a Di-methylated fraction of 45.70%, a Mono-methylated fraction of 54.30%, a Trimethylated fraction of 0.00% and an Unmethylated fraction of 0.00%. For the same compound, in assay [4], the Di-methylated fraction is recorded as 0.00%, the Mono-methylated fraction came out at 4.18%, the Trimethylated fraction stood at 0.00% and the Unmethylated fraction was determined as 95.82%.

As to “WPKRIA [synthetic XPKRIA hexapeptide substrate, X = W]”, in assay [2], the Di-methylated fraction is 0.00%, the Mono-methylated fraction worked out at 36.35%, the Trimethylated fraction is on record as 0.00% and the Unmethylated fraction was 63.65%. In assay [3], this compound came in with a Di-methylated fraction of 17.46%, a Mono-methylated fraction of 67.03%, a Trimethylated fraction of 0.00% and an Unmethylated fraction of 15.51%. Besides, in assay [4], the Di-methylated fraction turned out to be 0.00%, the Mono-methylated fraction amounted to 100.00%, the Trimethylated fraction is given as 0.00% and the Unmethylated fraction came to 0.00%.

In the case of “YPKRIA [synthetic XPKRIA hexapeptide substrate, X = Y]”, in assay [2], the Di-methylated fraction is recorded as 0.00%, the Mono-methylated fraction came out at 23.72%, the Trimethylated fraction amounted to 0.00% and the Unmethylated fraction stood at 76.28%. For the same compound, in assay [3], the Di-methylated fraction is listed as 100.00%, the Mono-methylated fraction was 0.00%, the Trimethylated fraction came to 0.00% and the Unmethylated fraction came to 0.00%. In assay [4], the Di-methylated fraction is reported as 0.00%, the Mono-methylated fraction amounted to 87.50%, the Trimethylated fraction came out at 0.00% and the Unmethylated fraction was found to be 12.50%.

The record behind these values is paper PMC6214909, “An asparagine/glycine switch governs product specificity of human N-terminal methyltransferase NTMT2” (Communications Biology, 2018).
